Data from patent US8420657B2 (Novartis AG, priority 2008, dated 2013).
Read-outs that look alike come from different tables or passages of the source.

Assays:
Assay type in all cases: biochemical
[1] = molecular target: T1, cMet (Homo sapiens, UniProt P08581); assay: cMet LanthaScreen TR-FRET kinase phosphorylation assay; details: recombinant kinase domain
T1 construct: using the recombinant domains of cMet, cKit, ALK and PDGFRalpha kinases
Description: (§1) The compounds are assayed in an antibody based kinase phosphorylation assay using the recombinant domains of cMet, cKit, ALK and PDGFRalpha kinases and a generic phospho-tyrosine peptide substrate. LanthaScreen™ is the detection of Time-Resolved Fluorescence Resonance Energy Transfer (TR-FRET) using lanthanide chelates to measure interactions between various binding partners. In a TR-FRET kinase assay, a long-lifetime lanthanide donor species is conjugated to an antibody that specifically binds to a phosphorylated product of a kinase reaction that is labeled with a suitable acceptor fluorophore. This antibody-mediated interaction brings the lanthanide donor and the acceptor into proximity such that resonance energy transfer can take place, resulting in a detectible increase in FRET. The LanthaScreen is run at ambient temperature and terminated by the addition of stop solution, followed by Tb-labeled P-20 antibody. After incubating in the dark, the plates are transferred to a fluorescence reader for counting. The effect of compound on the enzymatic activity is in all assays obtained from the linear progress curves and determined from one reading (end point measurement).

[2] = molecular target: T2, cKit (Homo sapiens, UniProt P10721); assay: cKit LanthaScreen TR-FRET kinase phosphorylation assay; details: recombinant kinase domain
T2 construct: using the recombinant domains of cMet, cKit, ALK and PDGFRalpha kinases
Description: as §1

[3] = molecular target: T3, PDGFRalpha (Homo sapiens, UniProt P16234); assay: PDGFRalpha LanthaScreen TR-FRET kinase phosphorylation assay; details: recombinant kinase domain, read-out: PDGFRa/IC50
T3 construct: using the recombinant domains of cMet, cKit, ALK and PDGFRalpha kinases
Description: as §1

[4] = molecular target: T4, GST-JAK2(808-1132) (Homo sapiens, UniProt O60674); assay: JAK2 kinase assay (Caliper mobility shift, LabChip 3000)
T4 construct: GST-JAK2(808-1132); purchased Invitrogen (Carlsbad, USA) #4288
Method in brief: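 Eight-point compound series (final 10–0.003 μM) tested on purchased GST-JAK2 kinase domain (808-1132). Peptide FITC-JAK3tide plus ATP reacted 60 min, 30 °C, then quenched with EDTA; turnover from charge-based separation of substrate and product.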

[5] = molecular target: T5, ALK (Homo sapiens, UniProt Q9UM73); assay: ALK LanthaScreen TR-FRET kinase phosphorylation assay; details: recombinant kinase domain
T5 construct: using the recombinant domains of cMet, cKit, ALK and PDGFRalpha kinases
Description: as §1

T3 sequence (P16234 593-954 limits assumed, species assumed): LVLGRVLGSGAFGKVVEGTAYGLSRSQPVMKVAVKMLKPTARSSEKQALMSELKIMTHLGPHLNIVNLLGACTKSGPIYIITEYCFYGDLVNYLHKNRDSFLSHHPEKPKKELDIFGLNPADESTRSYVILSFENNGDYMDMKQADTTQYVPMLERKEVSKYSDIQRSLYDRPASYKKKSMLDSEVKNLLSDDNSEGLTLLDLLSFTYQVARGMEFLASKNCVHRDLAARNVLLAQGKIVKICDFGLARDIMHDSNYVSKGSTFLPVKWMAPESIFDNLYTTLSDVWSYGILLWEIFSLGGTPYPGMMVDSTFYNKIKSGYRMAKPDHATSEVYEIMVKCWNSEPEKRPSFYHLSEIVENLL
T2 sequence (P10721 589-937 limits assumed): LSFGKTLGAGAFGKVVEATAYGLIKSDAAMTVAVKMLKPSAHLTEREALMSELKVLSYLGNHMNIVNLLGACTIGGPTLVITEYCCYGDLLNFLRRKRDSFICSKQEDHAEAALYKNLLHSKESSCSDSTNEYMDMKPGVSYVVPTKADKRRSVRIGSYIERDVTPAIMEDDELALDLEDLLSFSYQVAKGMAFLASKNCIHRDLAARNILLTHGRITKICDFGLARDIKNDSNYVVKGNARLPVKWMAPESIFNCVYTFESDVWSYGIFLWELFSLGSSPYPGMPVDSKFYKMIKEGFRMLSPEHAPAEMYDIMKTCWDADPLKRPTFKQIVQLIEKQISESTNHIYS
T1 sequence (P08581 1078-1345 limits assumed): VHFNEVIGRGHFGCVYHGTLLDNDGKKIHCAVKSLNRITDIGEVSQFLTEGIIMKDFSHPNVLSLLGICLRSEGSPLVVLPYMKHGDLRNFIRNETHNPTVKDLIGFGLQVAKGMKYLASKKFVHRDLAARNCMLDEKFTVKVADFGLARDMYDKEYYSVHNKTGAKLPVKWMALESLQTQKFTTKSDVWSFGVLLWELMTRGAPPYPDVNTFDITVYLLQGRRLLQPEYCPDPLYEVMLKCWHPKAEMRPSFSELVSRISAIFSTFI
T5 sequence (Q9UM73 1116-1392 limits assumed, species assumed): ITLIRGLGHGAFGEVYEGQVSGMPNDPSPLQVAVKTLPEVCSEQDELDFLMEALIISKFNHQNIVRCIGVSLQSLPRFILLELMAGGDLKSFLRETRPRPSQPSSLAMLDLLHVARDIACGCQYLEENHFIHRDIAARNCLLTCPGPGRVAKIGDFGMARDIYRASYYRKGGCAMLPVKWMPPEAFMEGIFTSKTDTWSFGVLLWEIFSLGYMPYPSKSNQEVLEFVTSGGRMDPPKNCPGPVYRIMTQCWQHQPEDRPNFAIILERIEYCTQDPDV
T4 sequence (O60674 808-1132): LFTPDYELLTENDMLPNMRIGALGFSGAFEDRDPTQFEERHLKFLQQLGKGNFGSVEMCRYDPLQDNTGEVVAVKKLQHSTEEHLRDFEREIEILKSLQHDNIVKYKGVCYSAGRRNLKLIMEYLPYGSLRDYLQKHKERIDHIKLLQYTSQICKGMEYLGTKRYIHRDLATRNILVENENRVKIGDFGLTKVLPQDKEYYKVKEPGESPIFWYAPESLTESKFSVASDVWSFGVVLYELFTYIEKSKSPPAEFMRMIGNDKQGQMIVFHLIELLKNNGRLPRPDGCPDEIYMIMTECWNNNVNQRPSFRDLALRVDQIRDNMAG

SMILES | IC50 [1] [µM] | IC50 [2] [µM] | IC50 [3] [µM] | IC50 [4] [µM] | IC50 ([4]; Table 3) [µM] | IC50 [5] [µM]
N#Cc1ccc(Nc2ncc3ccn(-c4ccc(C(=O)N5CCOCC5)cc4)c3n2)cn1 [Example 235, 5-{7-[4-(Morpholine-4-carbonyl)-phenyl]-7H-pyrrolo[2,3-d]pyrimidin-2-ylamino}-pyridine-2-carbonitrile] | > 10 | > 10 | > 10 | 0.056 | 0.056 | > 10
CN1CCN(c2ccc(Nc3ncc4ccn(-c5ccc(C#N)cc5)c4n3)cn2)CC1 [Example 278, 4-{2-[6-(4-Methyl-piperazin-1-yl)-pyridin-3-ylamino]-pyrrolo[2,3-d]pyrimidin-7-yl}-benzonitrile] | 1.4 | 1.35 | 2.65 | 0.011 | 0.011 | > 10
OCCN1CCOC[C@@H]1c1ccc(Nc2ncc3ccn(-c4cc(F)c(CN5CCOCC5)c(F)c4)c3n2)cc1 [Example 521, 2-((S)-3-{4-[7-(3,5-difluoro-4-morpholin-4-ylmethyl-phenyl)-7H-pyrrolo[2,3-d]pyrimidin-2-ylamino]-phenyl}-morpholin-4-yl)-ethanol] | 3.5 | 2.9 | 2.8 | ≤ 0.003 | < 0.003 | > 10
